Laboratory results: patent publication US20160244728A1, “CULTURE METHOD FOR PLURIPOTENT STEM CELLS AND KIT AND MEDIUM FOR CULTURE OF PLURIPOTENT STEM CELLS USED THEREIN” (FUJIFILM Corporation, priority 2013, published 2016)

Columns and labels:
human iPS cells [1] = assay: Cell adhesiveness evaluation 2 (synthetic polypeptides added to cells seeded on natural vitronectin); type: cell-based; conditions: 100 μM synthetic polypeptide
Experimental: The polypeptides shown in Table 7 were synthesized by an Fmoc solid-phase synthesis method. A surface onto which natural vitronectin was adsorbed at a concentration of 130 pmol/cm^2 was prepared, and then a cell suspension to which 100 μM of the aforementioned synthetic polypeptides were added was seeded into wells at a ratio of 30,000 cells/well. The number of adhesive cells 24 hours after seeding was calculated in the same manner as in <Cell adhesiveness evaluation 1>, and the results are shown in Table 7. In Table 7, the cell adhesion rate is expressed as a relative value calculated by regarding the cell adhesion rate obtained by using a culture solution not containing the synthetic polypeptides as being 100%. n=3.

human iPS cells [2] = assay: Growth evaluation in Essential 8 medium with magnesium ascorbyl phosphate; type: cell-based; conditions: for number of growing cells depending on the concentration of magnesium ascorbyl phosphate (in words): Tables 10 to 13; for Number of cells after 3 days (%): n=3
Experimental: The growth of cells was evaluated in the same manner as in Reference example 5.
Magnesium ascorbyl phosphate was added to a medium. […] The samples were adsorbed onto a 96-well plate, and the iPS cells collected in the same manner as in <Cell adhesiveness evaluation 1> were seeded into the plate at a ratio of 1×10^4 cells/well and cultured for 3 days in a 5% CO2 incubator at 37° C. The number of cells after 3 days was measured in the same manner as in <Cell adhesiveness evaluation 1>. Furthermore, by using VTN-N (manufactured by Life Technologies) and Vitronectin-XF (manufactured by Primorigen Biosciences), the growth of the cells was evaluated in the same manner.
The results obtained from RCP-17 are shown in Table 10, the results obtained from Human Recombinant Laminin-511 are shown in Table 11, the results obtained from VTN-N (manufactured by Life Technologies) are shown in Table 12, and the results obtained from Vitronectin-XF (manufactured by Primorigen Biosciences) are shown in Table 13. In Tables 10 and 11, the number of cells is expressed as a relative value calculated by regarding the number of cells at the concentration of magnesium ascorbyl phosphate of 0.8 mmol/L as being 100. n=3.

CCTDYTAECKPQVTRGDVFT [Peptide-5, polypeptide synthesized by an Fmoc solid-phase synthesis method]
adhesion of cells to the natural vitronectin on addition of the peptide (in words) (human iPS cells [1]): significantly hindered

CCTDYTAECKPQVTRGEVFT [Peptide-7]
adhesion of cells to the natural vitronectin on addition of the peptide (in words) (human iPS cells [1]): not hindered

DKKCQCDELCSYYQSCCTDY [Peptide-4, polypeptide synthesized by an Fmoc solid-phase synthesis method]
adhesion of cells to the natural vitronectin on addition of the peptide (in words) (human iPS cells [1]): significantly hindered

DQESCKGRCTEGFNVDKKCQ [Peptide-1, polypeptide synthesized by an Fmoc solid-phase synthesis method]
adhesion of cells to the natural vitronectin on addition of the peptide (in words) (human iPS cells [1]): not hindered

EGFNVDKKCQCDELCSYYQS [Peptide-3, polypeptide synthesized by an Fmoc solid-phase synthesis method]
adhesion of cells to the natural vitronectin on addition of the peptide (in words) (human iPS cells [1]): not hindered

KGRCTEGFNVDKKCQCDELC [Peptide-2, polypeptide synthesized by an Fmoc solid-phase synthesis method]
adhesion of cells to the natural vitronectin on addition of the peptide (in words) (human iPS cells [1]): not hindered

Laminin-511: recombinant laminin (Human Recombinant Laminin-511: BIOLAMINA AB), control
number of growing cells depending on the concentration of magnesium ascorbyl phosphate (in words) (human iPS cells [2]): does not depend | Number of cells after 3 days (%) (human iPS cells [2]; magnesium ascorbyl phosphate 0.2 mmol/L, added amount 20 μg/cm^3, Table 11, relative to 0.8 mmol/L = 100): 61% | Number of cells after 3 days (%) (human iPS cells [2]; magnesium ascorbyl phosphate 0.5 mmol/L, added amount 20 μg/cm^3, Table 11, relative to 0.8 mmol/L = 100): 79% | Number of cells after 3 days (%) (human iPS cells [2]; magnesium ascorbyl phosphate 0.8 mmol/L, added amount 20 μg/cm^3, Table 11, reference = 100): 100% | Number of cells after 3 days (%) (human iPS cells [2]; magnesium ascorbyl phosphate 1.6 mmol/L, added amount 20 μg/cm^3, Table 11, relative to 0.8 mmol/L = 100): 90% | Number of cells after 3 days (%) (human iPS cells [2]; magnesium ascorbyl phosphate 3.7 mmol/L, added amount 20 μg/cm^3, Table 11, relative to 0.8 mmol/L = 100): 114% | Number of cells after 3 days (%) (human iPS cells [2]; magnesium ascorbyl phosphate 9.1 mmol/L, added amount 20 μg/cm^3, Table 11, relative to 0.8 mmol/L = 100): 100% | Number of cells after 3 days (%) (human iPS cells [2]; magnesium ascorbyl phosphate 18.1 mmol/L, added amount 20 μg/cm^3, Table 11, relative to 0.8 mmol/L = 100): 112%

TAECKPQVTRGDVFTMPEDE [Peptide-6, polypeptide synthesized by an Fmoc solid-phase synthesis method]
adhesion of cells to the natural vitronectin on addition of the peptide (in words) (human iPS cells [1]): significantly hindered

TAECKPQVTRGEVFTMPEDE [Peptide-8]
adhesion of cells to the natural vitronectin on addition of the peptide (in words) (human iPS cells [1]): not hindered

B1: RCP-17: recombinant polypeptide, human vitronectin positions 1-55, 269-277, 295-341, 342-373, C274S (protein)
chain: MDQESCKGRCTEGFNVDKKCQCDELCSYYQSCCTDYTAECKPQVTRGDVFTMPEDESQEESEGSEDIFELLFWGRTSAGTRQPQFISRDWHGVPGQVDAAMAGRIYISGMAPRPSLAKKQRFRHRNRKGYRSQRGHSRGRNQN
modifications: Synthetic Peptide RCP-17
notes: recombinant polypeptide, human vitronectin positions 1-55, 269-277, 295-341, 342-373, C274S
number of growing cells depending on the concentration of magnesium ascorbyl phosphate (in words) (human iPS cells [2]): increases | Number of cells after 3 days (%) (human iPS cells [2]; magnesium ascorbyl phosphate 0.2 mmol/L, added amount 100 μg/cm^3, 1×10^4 cells/well, relative to 0.8 mmol/L = 100): 114% | Number of cells after 3 days (%) (human iPS cells [2]; magnesium ascorbyl phosphate 0.5 mmol/L, added amount 100 μg/cm^3, 1×10^4 cells/well, relative to 0.8 mmol/L = 100): 98% | Number of cells after 3 days (%) (human iPS cells [2]; magnesium ascorbyl phosphate 0.8 mmol/L, added amount 100 μg/cm^3, 1×10^4 cells/well, reference = 100): 100% | Number of cells after 3 days (%) (human iPS cells [2]; magnesium ascorbyl phosphate 1.6 mmol/L, added amount 100 μg/cm^3, 1×10^4 cells/well, relative to 0.8 mmol/L = 100): 145% | Number of cells after 3 days (%) (human iPS cells [2]; magnesium ascorbyl phosphate 3.7 mmol/L, added amount 100 μg/cm^3, 1×10^4 cells/well, relative to 0.8 mmol/L = 100): 219% | Number of cells after 3 days (%) (human iPS cells [2]; magnesium ascorbyl phosphate 9.1 mmol/L, added amount 100 μg/cm^3, 1×10^4 cells/well, relative to 0.8 mmol/L = 100): 212% | Number of cells after 3 days (%) (human iPS cells [2]; magnesium ascorbyl phosphate 18.1 mmol/L, added amount 100 μg/cm^3, 1×10^4 cells/well, relative to 0.8 mmol/L = 100): 204% | Number of cells after 3 days (%) (human iPS cells [2]; magnesium ascorbyl phosphate 36.0 mmol/L, added amount 100 μg/cm^3, 1×10^4 cells/well, relative to 0.8 mmol/L = 100): 230%
